Source: the NIST ThermoML archive (doi:10.1021/acs.jced.9b00846)

Settings: Liquid, Vibrating tube method

CC(C)CC(C)C [2,4-dimethylpentane]
Settings | mass density [kg/m3]
283.15 K, 95 kPa | 681.7
283.15 K, 4961 kPa | 686.3
283.15 K, 9969 kPa | 690.9
283.15 K, 14980 kPa | 695.1
283.15 K, 19985 kPa | 699.1
283.15 K, 25039 kPa | 702.9
283.15 K, 30016 kPa | 706.5
283.15 K, 35089 kPa | 710
283.15 K, 40016 kPa | 713.3
283.15 K, 45012 kPa | 716.4
283.15 K, 49972 kPa | 719.5
283.15 K, 54980 kPa | 722.4
283.15 K, 59931 kPa | 725.3
283.15 K, 65047 kPa | 728.1
288.15 K, 127 kPa | 677.3
288.15 K, 4984 kPa | 682.2
288.15 K, 9987 kPa | 686.8
288.15 K, 14976 kPa | 691.2
288.15 K, 19996 kPa | 695.3
288.15 K, 24895 kPa | 699.2
288.15 K, 30002 kPa | 703
288.15 K, 34983 kPa | 706.5
288.15 K, 40000 kPa | 709.9
288.15 K, 44974 kPa | 713.1
288.15 K, 49950 kPa | 716.2
288.15 K, 55010 kPa | 719.3
288.15 K, 60065 kPa | 722.2
288.15 K, 64958 kPa | 725
293.15 K, 83 kPa | 672.8
293.15 K, 4982 kPa | 677.9
293.15 K, 9969 kPa | 682.7
293.15 K, 15059 kPa | 687.3
293.15 K, 19914 kPa | 691.5
293.15 K, 25056 kPa | 695.6
293.15 K, 29936 kPa | 699.3
293.15 K, 34976 kPa | 703
293.15 K, 39994 kPa | 706.4
293.15 K, 44992 kPa | 709.8
293.15 K, 50030 kPa | 713
293.15 K, 54953 kPa | 716
293.15 K, 59933 kPa | 719
293.15 K, 65045 kPa | 721.9
298.15 K, 92 kPa | 668.3
298.15 K, 4941 kPa | 673.6
298.15 K, 9982 kPa | 678.6
298.15 K, 14991 kPa | 683.3
298.15 K, 19963 kPa | 687.6
298.15 K, 25048 kPa | 691.8
298.15 K, 29972 kPa | 695.7
298.15 K, 34945 kPa | 699.4
298.15 K, 39958 kPa | 702.9
298.15 K, 45007 kPa | 706.4
298.15 K, 49963 kPa | 709.6
298.15 K, 55008 kPa | 712.8
298.15 K, 60003 kPa | 715.8
298.15 K, 65017 kPa | 718.8
303.15 K, 72 kPa | 663.8
303.15 K, 4969 kPa | 669.3
303.15 K, 9974 kPa | 674.5
303.15 K, 14963 kPa | 679.3
303.15 K, 19981 kPa | 683.9
303.15 K, 25047 kPa | 688.2
303.15 K, 29954 kPa | 692.1
303.15 K, 34987 kPa | 695.9
303.15 K, 39964 kPa | 699.6
303.15 K, 45006 kPa | 703.1
303.15 K, 49991 kPa | 706.4
303.15 K, 55060 kPa | 709.7
303.15 K, 59991 kPa | 712.8
303.15 K, 65054 kPa | 715.8
308.15 K, 100 kPa | 659.4
308.15 K, 4987 kPa | 665.1
308.15 K, 9965 kPa | 670.4
308.15 K, 15040 kPa | 675.5
308.15 K, 19960 kPa | 680.1
308.15 K, 24964 kPa | 684.4
308.15 K, 30076 kPa | 688.7
308.15 K, 34985 kPa | 692.5
308.15 K, 39972 kPa | 696.2
308.15 K, 44972 kPa | 699.8
308.15 K, 49955 kPa | 703.2
308.15 K, 54996 kPa | 706.5
308.15 K, 60063 kPa | 709.7
308.15 K, 65021 kPa | 712.7
313.15 K, 108 kPa | 654.9
313.15 K, 5004 kPa | 660.8
313.15 K, 10013 kPa | 666.4
313.15 K, 15049 kPa | 671.6
313.15 K, 19963 kPa | 676.3
313.15 K, 25062 kPa | 680.9
313.15 K, 29960 kPa | 685
313.15 K, 34942 kPa | 689
313.15 K, 40039 kPa | 692.9
313.15 K, 45017 kPa | 696.6
313.15 K, 50065 kPa | 700.1
313.15 K, 54977 kPa | 703.4
313.15 K, 59923 kPa | 706.6
313.15 K, 64996 kPa | 709.7
318.15 K, 110 kPa | 650.2
318.15 K, 5061 kPa | 656.5
318.15 K, 9957 kPa | 662.2
318.15 K, 15002 kPa | 667.6
318.15 K, 19980 kPa | 672.5
318.15 K, 25013 kPa | 677.1
318.15 K, 30045 kPa | 681.5
318.15 K, 34965 kPa | 685.6
318.15 K, 39938 kPa | 689.5
318.15 K, 44971 kPa | 693.2
318.15 K, 49989 kPa | 696.8
318.15 K, 55009 kPa | 700.2
318.15 K, 59952 kPa | 703.5
318.15 K, 65056 kPa | 706.7
323.15 K, 121 kPa | 645.6
323.15 K, 5001 kPa | 652.1
323.15 K, 10007 kPa | 658.1
323.15 K, 15037 kPa | 663.6
323.15 K, 19969 kPa | 668.7
